# Assay results taken from US20080199438A1, “Methods For Suppressing Tumor Proliferation” (DNAVEC RESEARCH INC., priority 2004, published 2008).
# What was measured:
# Format in all cases: cell-based, human
# MRC5 cells [1] = experiment: Northern blot time course of FGF-2-mediated VEGF mRNA expression; settings: MRC5, 10 ng/ml FGF-2, Northern blot
# Experimental: (B) A p70S6K inhibitor, Rapamycin (RAPA) stops the later phase of FGF-2-mediated VEGF mRNA expression in MRC5 cells. After 48 hours of preincubation in the presence of 1% FBS, cells were stimulated with 10 ng/ml of recombinant human FGF-2. Cells were harvested at the time indicated in the figure and then subjected to Northern blot analysis. The bands were visualized and subjected to densitometric analysis using a photoimager.
# (§1) Total cellular RNA, isolated using the ISOGEN system (Wako Pure Chemicals, Osaka, Japan), was electrophoresed and transferred onto a nylon membrane. The membranes were hybridized overnight at 60° C. with random-primed [α-^32P]dCTP-labeled probes. The bands were visualized and subjected to densitometry using a photoimager.
# HSMC [2] = experiment: Northern blot of receptor mRNA after growth factor stimulation
# Experimental: (§2) (B) A time course of FGF-2-mediated expression of PDGFRα mRNA in MRC5 cells and HSMCs was analyzed by Northern blotting. After 48 hours of preincubation under serum-free conditions, each of the cell lines was stimulated with FGF-2. Cells were harvested at the time indicated in the figure and then subjected to Northern blot analysis. Bands were visualized and subjected to densitometric analysis using a photoimager. The experience was carried out in duplicate and similar results were obtained.
# as §1
# (§3) To assess the role of the PDGF-AA signal in the angiogenic response of host vasculature, the FGF-2-mediated induction of VEGF and HGF in human mesenchymal cells (MRC5 and HSMC) cultured under serum-free conditions was investigated. […] In clinical application such as ischemia treatments, angiogenesis might also be induced more effectively by administering both FGF-2 and PDGF-AA, rather than either one alone.
# MRC5 cells [3] = experiment: as above
# Experimental: as §2, §1, §3
# MRC5 cells [4] = experiment: VEGF secretion after stimulation with FGF-2 and/or PDGF-AA, ELISA of culture medium; settings: MRC5, serum-free, 72 hours
# Experimental: (§4) (A) Recombinant FGF-2 and PDGF-AA work together to increase VEGF secretion from fibroblasts (MRC5) and vascular smooth muscle cells (HSMCs). After 48 hours of preincubation in serum-free conditions, each of the cell lines was stimulated with FGF-2 and/or PDGF-AA. After 72 hours, the cultured medium was subjected to ELISA. n3 in each group. *P<0.01. #P<0.05
# (§5) As mentioned previously (Masaki I et al., Circ Res. 90: 966-973 (2002); Onimaru M et al., Circ Res. 91: 723-730 (2002)), the protein contents of the mouse limb muscle, tumor, and culture medium were determined using Quantikine Immunoassay systems for mice (both the 164 and 220 amino acid residue forms are recognized) and human VEGF-A, human FGF-2 (available to both human and mouse), human HGF (R&D Systems Inc., Minneapolis, Minn.), and rat HGF (available to mouse HGF; Institute of Immunology Inc., Tokyo, Japan), according to the manufacturer's instructions.
# as §3
# MRC5 cells [5] = experiment: FGF-2-mediated secretion of VEGF and HGF with signal transduction inhibitors or neutralizing antibody, ELISA; settings: MRC5, 10 ng/ml FGF-2, 72 hours; rapamycin 100 ng/ml, U0126 10 μmol/L, Ras-inhibitory peptide 50 μmol/L
# Experimental: (A) Effect of various inhibitors of intracellular signal transduction pathways upon the secretion of VEGF and HGF in MRC5 cells. After 48 hours of preincubation in the presence of 1% FBS, cells were stimulated with 10 ng/ml of human recombinant FGF-2 in the presence or absence of various inhibitors. After 72 hours, the medium was subjected to ELISA. n=3 in each group. *P<0.01.
# (C) Increases in FGF-2-mediated VEGF secretion completely depend on PDGFRα. After 48 hours of preincubation in the presence of 1% FBS, MRC5 cells were stimulated with 10 ng/ml of recombinant human FGF-2 in the presence or absence of an anti-PDGFRα neutralizing antibody. After 72 hours, the medium was subjected to ELISA. Similar results were obtained for the expression of HGF (data not shown). *P<0.01.
# HSMC (J. Cell Biol., 50: 172-86 (1971)), MRC-5 (ATCC CCL-171), SAS (J. Biol. Chem., 270 (41): 24321-69 (1995)), MH134 (J. Natl. Cancer Inst., 17: 1-21 (1956)), QG56 (Int. J. Cancer, 35 (6): 808-12 (1985)), TF (Cancer, 69 (10): 2589-97 (1992)), KN (Cancer, 69 (10): 2589-97 (1992)), EBC-1 (Am. J. Pathol., 142 (2): 425-31 (1993)), PC9 (Int. J. Cancer, 15 (4): 449-55 (1985)), and COS7 Cells (ATCC CRL-1651) were purchased from American Type Culture Collection (ATCC). As mentioned previously, the intracellular signal inhibitors below were each used at the following concentrations for HSMC and MRC5 cells (Onimaru M et al., Circ Res. 91: 723-730 (2002)): Ras, Ras-inhibitory peptide (50 μmol/L, Alexis Japan, Tokyo, Japan); p70S6K, p70S6K inhibitor rapamycin (100 ng/ml, Sigma-Aldrich Japan, Tokyo, Japan); PKC, PKC inhibitor bisindolylmaleimide (100 nmol/L, Sigma); PI3K, PI3K-inhibitor wortmannin (120 nmol/L, Sigma); MEK inhibitor U0126 (10 μmol/L, Promega K.K., Tokyo, Japan); PKA, PKA-inhibitory peptide (1 μmol/L, Calbiochem, San Diego, Calif.); and […], NF-κB inhibitor ALLN (5 μmol/L, Roche Diagnostics, Tokyo, Japan).
# as §5
# HSMC [6] = experiment: VEGF secretion after stimulation with FGF-2 and/or PDGF-AA, ELISA of culture medium; settings: serum-free, 72 hours
# Experimental: as §4, §5, §3
PDGFRα transcription (HSMC [2]),Molecule,time course of FGF-2-mediated VEGF expression (MRC5 cells [1]),"PDGFRα transcription (MRC5 cells [3]; MRC5, Northern blot)",release of VEGF into the culture medium (MRC5 cells [4]),FGF-2-mediated upregulation of HGF/SF protein (MRC5 cells [5]),FGF-2-mediated upregulation of VEGF protein (MRC5 cells [5]),FGFR1 expression (MRC5 cells [3]; data not shown),level of VEGF in the culture medium (HSMC [6])
upregulation,FGF-2: human recombinant fibroblast growth factor-2 used to stimulate cells,biphasic (at three hours and after that) upregulation,upregulation,stimulated release of VEGF,upregulated,upregulated,–,–
–,PDGF-AA: recombinant PDGF-A homodimer used to stimulate cells,–,–,did not,–,–,did not change,upregulated
–,"N#CC(=C(/N)Sc1ccccc1N)/C(C#N)=C(\N)Sc1ccccc1N [MEK inhibitor, U0126, reference compound]",–,–,–,removed these effects,removed these effects,–,–
